Several values for one entry are separate records, joined by “and”; a condition that tells them apart may be missing. Equal entries are not always repeated.
Columns and labels:
[1] = test system: lasered eyes of cynomologous monkeys (intraocular pressure); test: Intraocular pressure by pneumatonometry, "DeSantis" test, laser-treated hypertensive right eye (OD); format: in vivo, cynomologous monkey; details: for IOP (individual monkey) / Mean IOP / Mean % change of IOP / Mean % change of IOP versus control: OD (lasered)
From the text: (§1) Because there are certain differences in the eyes of rabbits and man, it was desired to test topical carbonic anhydrase inhibition by the compound of the present invention in a subhuman primate species to confirm the presence of activity by this route. The cynomologous monkey was chosen to represent the species. Because drug effects on intraocular pressure are sometimes less dramatic or not demonstrable using an eye that is normotensive, a test protocol known as the "DeSantis" test was developed. It involves testing the carbonic anhydrase inhibitor effects in eyes made hypertensive by laser treatment. […] After the eye was allowed to recover from the inflammatory process which accompanied the laser treatment, it was used to test the subject drugs.
(§2) Intraocular pressure (IOP) was determined using an Alcon Pneumatonograph after light corneal anesthesia with proparacaine, before and at 1, 3 and 7 hours after installation of drug to both eyes of each of six cynomologous monkeys per group. […] Animals were trained to sit in restraint chairs and to accept the pressure measurement. Following the measurement, residual anesthetic was washed out with saline.
(§3) Data for the intraocular pressure studies are presented in the attached tables, where the lasered eyes but not the normal eyes show significant reduction of intraocular pressure compared to control animals.
(§4) In the tables below "OD" refers to ocular dexter, and "OS" refers to ocular sinnister. This is simply another way of saying right and left eye. The designation number in the lefthand column of each table refers to the designation number assigned to each monkey. "SE" refers to standard error.

[2] = test system: eyes of rabbits (intraocular pressure); test: Measurement of intraocular pressure ("Salted Rabbit Test"), applanation tonometry, topical 1% suspension; format: in vivo; details: for Ave. change in IOP: 50 μl of 1% suspension q 2 min x 3
Description: ("Salted Rabbit Test") (IOP)
Rabbits (3-4 months old) were maintained on […] solution in place of drinking water for 3 weeks prior to the determination of IOP because it has been shown that a diet deficient in sodium produces a variable response to this class of drugs. During this 3 week period numerous IOP measurements were made to familiarize the rabbits with this procedure. Baseline IOP measurements were determined by applanation tonometry following topical administration of 3 drops of 1% suspension of analog CAI inhibitor to one eye. The fellow eye received blank vehicle. The observer was masked. Each eye received 1 to 2 drops of proparacaine hydrochloride (0.5%) to anethetize the cornea prior to placing the sensor tip of the tonometer flot on the cornea. IOP measurements were determined over 180 minutes at 20 minute intervals. Changes in IOP were expressed as:
IOP change=IOP (dosed eye - control eye)t -IOP (dosed eye prior to
administration - control eye)t=O
Intraocular pressure (IOP) measurements of 6-hydroxyethoxy-2-benzothiazole sulfonamide in rabbits^a maintained on 3% sodium chloride drinking water following topical instillation.^b,c
^b The dose was 50 μl of a 1% suspension q 2 minutes for a total of 3 doses

[3] = test system: normal eyes of cynomologous monkeys (intraocular pressure); test: Intraocular pressure by pneumatonometry, normal left eye (OS); format: in vivo, cynomologous monkey
From the text: as §1, §2, §3, §4

[4] = Table 1, 1.0% gel, 0 hr (before drug)
[5] = Table 2 (six days later), 1.0% gel, 0 hr (before drug)
[6] = Table 2 (six days later), 1.0% gel, 3 hr
[7] = Table 2 (six days later), 1.0% gel, 7 hr
[8] = Table 3, 3.0% gel, 0 hr (before drug)
[9] = Table 4, 3.0% gel, 0 hr (before drug)
[10] = Table 4, 3.0% gel, 0 hr (before drug), listed as 6-Hydroxyethoxy-2-benzothiazolesulfomaide
[11] = Table 4, 3.0% gel, 1 hr, listed as 6-Hydroxyethoxy-2-benzothiazolesulfomaide
[12] = Table 4, 3.0% gel, 3 hr, listed as 6-Hydroxyethoxy-2-benzothiazolesulfomaide
[13] = Table 4, 3.0% gel, 7 hr, listed as 6-Hydroxyethoxy-2-benzothiazolesulfomaide

NS(=O)(=O)c1nc2ccc(OCCO)cc2s1 [6-hydroxyethoxy-2-benzothiazolesulfonamide]
IOP (individual monkey) [1, 4]: 28 mmHg and 46 mmHg and 35 mmHg and 48 mmHg and 38 mmHg and 25 mmHg | Mean IOP [1, 4]: 36.7 mmHg | IOP (individual monkey) ([1]; Table 1, 1.0% gel, 3 hr): 23 mmHg and 36 mmHg and 30 mmHg and 40 mmHg and 34 mmHg | Mean % change of IOP ([1]; Table 1, 1.0% gel, 3 hr): -14.9% | Mean IOP ([1]; Table 1, 1.0% gel, 3 hr): 31.0 mmHg | IOP (individual monkey) ([1]; Table 1, 1.0% gel, 7 hr): 24 mmHg and 46 mmHg and 33 mmHg and 41 mmHg and 34 mmHg and 25 mmHg | Mean % change of IOP ([1]; Table 1, 1.0% gel, 7 hr): -7.5% | Mean IOP ([1]; Table 1, 1.0% gel, 7 hr): 33.8 mmHg | IOP (individual monkey) [1, 5]: 51 mmHg and 52 mmHg and 34 mmHg and 38 mmHg and 28 mmHg and 30 mmHg | Mean IOP [1, 5]: 38.8 mmHg | IOP (individual monkey) [1, 6]: 38 mmHg and 50 mmHg and 29 mmHg and 35 mmHg and 27 mmHg and 26 mmHg | Mean % change of IOP [1, 6]: -11.5% | Mean IOP [1, 6]: 34.2 mmHg | IOP (individual monkey) [1, 7]: 36 mmHg and 48 mmHg and 28 mmHg and 37 mmHg and 24 mmHg and 32 mmHg | Mean % change of IOP [1, 7]: -10.8% | Mean IOP [1, 7]: 34.2 mmHg | IOP (individual monkey) [1, 8]: 50 mmHg and 35 mmHg and 33 mmHg and 55 mmHg and 40 mmHg and 44 mmHg | Mean IOP [1, 8]: 42.8 mmHg | IOP (individual monkey) ([1]; Table 3, 3.0% gel, 1 hr): 45 mmHg and 33 mmHg and 30 mmHg and 52 mmHg and 35 mmHg and 50 mmHg | Mean % change of IOP versus control ([1]; Table 3, 3.0% gel, 1 hr): -4.9% | Mean IOP ([1]; Table 3, 3.0% gel, 1 hr): 40.8 mmHg | IOP (individual monkey) ([1]; Table 3, 3.0% gel, 3 hr): 41 mmHg and 20 mmHg and 30 mmHg and 57 mmHg and 32 mmHg and 45 mmHg | Mean % change of IOP versus control ([1]; Table 3, 3.0% gel, 3 hr): -14.0% | Mean IOP ([1]; Table 3, 3.0% gel, 3 hr): 37.5 mmHg | IOP (individual monkey) ([1]; Table 3, 3.0% gel, 7 hr): 37 mmHg and 23 mmHg and 25 mmHg and 55 mmHg and 33 mmHg and 40 mmHg | Mean % change of IOP versus control ([1]; Table 3, 3.0% gel, 7 hr): -18.5% | Mean IOP ([1]; Table 3, 3.0% gel, 7 hr): 35.5 mmHg | Mean % change of IOP [1, 9]: 0.0% | Mean IOP [1, 9]: 44.7 mmHg | IOP (individual monkey) [1, 10]: 38 mmHg and 55 mmHg and 37 mmHg and 42 mmHg and 50 mmHg and 46 mmHg | Mean % change of IOP ([1]; Table 4, 3.0% gel, 1 hr): -10.1% | Mean IOP ([1]; Table 4, 3.0% gel, 1 hr): 40.3 mmHg | IOP (individual monkey) [1, 11]: 37 mmHg and 50 mmHg and 32 mmHg and 30 mmHg and 53 mmHg and 40 mmHg | Mean % change of IOP ([1]; Table 4, 3.0% gel, 3 hr): -15.0% | Mean IOP ([1]; Table 4, 3.0% gel, 3 hr): 38.3 mmHg | IOP (individual monkey) [1, 12]: 33 mmHg and 47 mmHg and 29 mmHg and 21 mmHg and 45 mmHg and 55 mmHg | Mean % change of IOP ([1]; Table 4, 3.0% gel, 7 hr): -16.8% | Mean IOP ([1]; Table 4, 3.0% gel, 7 hr): 37.2 mmHg | IOP (individual monkey) [1, 13]: 35 mmHg and 55 mmHg and 28 mmHg and 38 mmHg and 32 mmHg | effectiveness for topical treatment of glaucoma (in words) ([1]; cynomologous monkeys): an effective treating composition for topical treatment of glaucoma | Ave. change in IOP ([2]; 20 min after dosing, N=12, probability N.S.): -0.2 mm Hg | Ave. change in IOP ([2]; 40 min after dosing, N=12, probability 0.07): -1.1 mm Hg | Ave. change in IOP ([2]; 60 min after dosing, N=12, probability 0.04): -1.1 mm Hg | Ave. change in IOP ([2]; 80 min after dosing, N=12, probability 0.12): -0.8 mm Hg | Ave. change in IOP ([2]; 100 min after dosing, N=12, probability 0.04): -1.2 mm Hg | Ave. change in IOP ([2]; 120 min after dosing, N=12, probability N.S.): -0.5 mm Hg | Ave. change in IOP ([2]; 140 min after dosing, N=12, probability N.S.): 0.2 mm Hg | Ave. change in IOP ([2]; 160 min after dosing, N=12, probability N.S.): 0.3 mm Hg | Ave. change in IOP ([2]; 180 min after dosing, N=12, probability N.S.): -0.2 mm Hg | effectiveness for topical treatment of glaucoma (in words) ([2]; rabbits): an effective treating composition for topical treatment of glaucoma | Ave. change in IOP ([2]; time 0 (baseline), N=12 rabbits): 0 mm Hg | IOP (individual monkey) [3, 4]: 33 mmHg and 19 mmHg and 24 mmHg and 23 mmHg and 20 mmHg | Mean IOP [3, 4]: 25.3 mmHg | IOP (individual monkey) ([3]; Table 1, 1.0% gel, 3 hr): 34 mmHg and 20 mmHg and 25 mmHg and 19 mmHg and 38 mmHg | Mean % change of IOP ([3]; Table 1, 1.0% gel, 3 hr): +5.2% | Mean IOP ([3]; Table 1, 1.0% gel, 3 hr): 26.8 mmHg | IOP (individual monkey) ([3]; Table 1, 1.0% gel, 7 hr): 34 mmHg and 25 mmHg and 28 mmHg and 22 mmHg and 19 mmHg and 41 mmHg | Mean % change of IOP ([3]; Table 1, 1.0% gel, 7 hr): +11.1% | Mean IOP ([3]; Table 1, 1.0% gel, 7 hr): 28.2 mmHg | IOP (individual monkey) [3, 5]: 30 mmHg and 22 mmHg and 25 mmHg and 27 mmHg and 24 mmHg | Mean IOP [3, 5]: 25.0 mmHg | IOP (individual monkey) [3, 6]: 29 mmHg and 23 mmHg and 26 mmHg and 27 mmHg and 24 mmHg | Mean % change of IOP [3, 6]: +1.9% | Mean IOP [3, 6]: 25.3 mmHg | IOP (individual monkey) [3, 7]: 27 mmHg and 23 mmHg and 28 mmHg and 24 mmHg | Mean % change of IOP [3, 7]: +5.2% | Mean IOP [3, 7]: 26.0 mmHg | IOP (individual monkey) [3, 8]: 27 mmHg and 24 mmHg and 22 mmHg and 26 mmHg and 30 mmHg | Mean IOP [3, 8]: 25.5 mmHg | IOP (individual monkey) ([3]; Table 3, 3.0% gel, 1 hr): 25 mmHg and 29 mmHg and 24 mmHg and 30 mmHg | Mean % change of IOP ([3]; Table 3, 3.0% gel, 1 hr): +1.7% | Mean IOP ([3]; Table 3, 3.0% gel, 1 hr): 26.0 mmHg | IOP (individual monkey) ([3]; Table 3, 3.0% gel, 3 hr): 23 mmHg and 27 mmHg and 28 mmHg and 25 mmHg | Mean % change of IOP ([3]; Table 3, 3.0% gel, 3 hr): -0.4% | Mean IOP ([3]; Table 3, 3.0% gel, 3 hr): 25.2 mmHg | IOP (individual monkey) ([3]; Table 3, 3.0% gel, 7 hr): 23 mmHg and 25 mmHg and 20 mmHg and 29 mmHg and 26 mmHg | Mean % change of IOP ([3]; Table 3, 3.0% gel, 7 hr): -0.6% | Mean IOP ([3]; Table 3, 3.0% gel, 7 hr): 25.3 mmHg | Mean % change of IOP [3, 9]: 0.0% | Mean IOP [3, 9]: 23.3 mmHg | IOP (individual monkey) [3, 10]: 24 mmHg and 20 mmHg and 18 mmHg and 30 mmHg and 21 mmHg and 27 mmHg | Mean % change of IOP ([3]; Table 4, 3.0% gel, 1 hr): 3.3% | Mean IOP ([3]; Table 4, 3.0% gel, 1 hr): 23.8 mmHg | IOP (individual monkey) [3, 11]: 25 mmHg and 16 mmHg and 23 mmHg and 28 mmHg and 24 mmHg and 27 mmHg | Mean % change of IOP ([3]; Table 4, 3.0% gel, 3 hr): -1.8% | Mean IOP ([3]; Table 4, 3.0% gel, 3 hr): 22.7 mmHg | IOP (individual monkey) [3, 12]: 27 mmHg and 18 mmHg and 20 mmHg and 25 mmHg and 21 mmHg | Mean % change of IOP ([3]; Table 4, 3.0% gel, 7 hr): 5.5% | Mean IOP ([3]; Table 4, 3.0% gel, 7 hr): 24.3 mmHg | IOP (individual monkey) [3, 13]: 28 mmHg and 20 mmHg and 23 mmHg and 27 mmHg

Source: patent US4975447A, “6-hydroxyethoxy-2-benzothiazolesulfonamide and topical treatment compositions and method for glaucoma” (University of Iowa Research Foundation, priority 1985, dated 1990)
